Like-named read-outs stand apart in the source and are kept apart here.
Columns and labels:
[1] = tested on: Passive cutaneous anaphylaxis (P.C.A.); experiment: Inhibition of passive cutaneous anaphylaxis (P.C.A.); type: in vivo, rat (Sprague-Dawley); conditions: Rattus norvegicus, 1 h; rats, 2 × 10^-5 mol/kg p.o., one hour before ovalbumin challenge
Protocol: (§1) 1. Determination of the inhibition of passive cutaneous anaphylaxis (P.C.A.) and of the anaphylactoid cutaneous reaction induced by histamine.
The P.C.A. reaction was carried out according to the methods described by Goose et al. (J.N. Immunology 16 (1969), 749) and by Martin et al (Arch. Pharmacol. 316 (1981), 186}.
The IgE-rich ovalbumin antiserum used in the test was obtained from immunized Brown-Norway rats. For immunization, the rats were given an i.p. injection of a mixture of 100 μg of ovalbumin with a Bordetella pertussis suspension (Vaxicoq®, Manufacturer: Institut Merieux, containing 5×10^9 organisms and 1.25 mg of Al(OH)3). After 20 days, the animals received a further i.p. injection of a solution of 10 μg of ovaIbumin in 0.5 ml of physiological saline solution for reimmunisation. After a further four days, the animals were bled, and the blood was centrifuged The antiserum obtained in this way was stored at -20° C. until use.
(§2) The determination of the inhibition of passive cutaneous anaphylaxis and the anaphylactoid cutaneous reaction induced by histamine was carried out as follows:
Sprague-Dawley rats having a body weight of 150-180 g were injected intradermally in one flank with 50 μl of a 1:75 dilution of the IgE-rich ovalbumin antiserum in physiological sodium chloride solution for passive sensitization to ovalbumin.
24 hours after sensitization a solution of 8.25 mg/kg of ovalbumin and 26.4 mg/kg of a blue dye (Evans' Blue) was administered i.v. to the rats according to Martin et al. to induce passive cutaneous anaphylaxis. The ovalbumin challenge caused a local anaphylactic reaction at the site at which the antiserum had been injected.
(§3) On the test days, the test substances were dissolved in distilled water which contained 1% by volume of dimethylformamide and 1% by volume of Tween®20 (polyoxyethylene(20) sorbitan monolaurate). One hour before the challenging ovalbumin administration, each animal received 2×10^-5 mol/kg of test substance administered orally in 0.5 ml of solution. A control group received only the solvent for comparison.
(§4) The oedematous anaphylactic (P.C.A.) and anaphylactoid (histamine-induced) reactions caused by the challenging i.v. ovalbumin injection, which are manifested by oedema formation, swelling and exudation of blue dye, were evaluated 30 minutes after challenge by the i.v. ovalbumin injection. This was done by visual determination of the extent to which the blue dye emerges at the sites of oedema formation. The percentage inhibition of anaphylactic and anaphylactoid reactions caused by the test substances was determined in comparison with the reactions of the control animals not treated with test substance with the aid of comparison scales.
(§5) The results obtained by the above test methods using compounds of the formula I are shown in the following Table A. The example numbers given for the compounds of formula I relate to the following preparation examples.

[2] = tested on: P.A.F.-induced aggregation of platelets from rabbit blood; experiment: Anti-P.A.F. effect in vitro: inhibition of P.A.F.-induced platelet aggregation; type: cell-based, rabbit (New Zealand hybrids); conditions: Oryctolagus cuniculus, Platelet, test substance concentration 10^-5 mol/l
Excerpt: 4. Determination of anti-P.A.F. effect in vitro.
Platelet-activating factor (P.A.F.) is a phospholipid mediator which has several effects. The activation of platelet aggregation leads to the induction of protracted broncho contractions and hyperreactivity of the airways.
The effects of the test substances on platelet aggregation induced by adding P.A.F. to a platelet suspension obtained from rabbit blood was investigated by the method described by Mikashima et al. (Jap. J. Pharmacol. 44 (1987) 387-391).
A suspension of platelets originating from rabbit blood was used which contained 4×10^9 platelets/ml in a modified Tyrode buffer solution adjusted to pH 7.4. Tyrode solution is an aqueous solution containing 136.9 mmol of NaCl, 2.68 mmol of KCl, 2.31 mmol of CaCl2, 1.0 mmol of MgCl2, 11.9 mmol of NaHCO3, 1.45 mmol of NaH2 PO4 and 5.55 mmol of glucose per liter. This solution was modified by adding 1.3 mM/l of CaCl2 and 2.5 g/l of gelatin. The platelets were obtained from 10 ml blood samples from each of three rabbits (New Zealand hybrids, body weight 3-4 kg). For this, the blood samples were treated with ethylenediaminetetraacetic acid and washed by the method of Artley et al. (Brit. J. Hamatol. 19 (1970), 7-17). A platelet-rich plasma was then initially separated by centrifugation (20 minutes at 400×g). The platelets were separated from the plasma by centrifuging again for 15 minutes at 1400×g. After centrifuging, the platelets remaining as a sediment were resuspended in a calcium-free Tyrode buffer solution. 0.4 mmol of lysine acetylsalicylate were then added and after 15 minutes the blood platelets were sedimented again. The sediment was resuspended in the abovementioned modified Tyrode buffer solution, and the number of platelets in the resulting suspension was adjusted to the desired content.
A 40×10^-9 molar P.A.F. solution was used as the reagent. This solution was prepared from a 1.8×10^-3 molar stock solution in chloroform. For this, a 10μl sample of the stock solution was evaporated to dryness and redissolved in 180 μl of the modified Tyrode solution, to which 0.25% of dilapidated bovine serum albumin had been added. 10^-5 molar working solutions were then prepared from this and stored frozen. Samples of these solutions were appropriately diluted for the tests.
To carry out the tests, 50 μl of the platelet solution and 10 μl of a 40×10^-5 molar solution of the compound to be investigated were added to 330 μl of the modified Tyrode buffer solution with stirring (1000 rpm) in an aggregation tube provided with a small magnetic stirrer. This corresponds to a final test substance concentration of 10^-5 mol/l. After a preincubation time of 90seconds, 10 μl of the P.A.F. preparation were added. The aggregation occurring in the aggregation tubes was measured for 4-5 minutes using a computerized aggregometer.
The aggregation occurring in the test tubes containing only platelet suspension was rated as 0%. The aggregation occurring in test tubes containing platelet suspension and P.A.F. preparation was rated as 100%. The aggregation which still occurred in the presence of the test substances (i.e. during inhibition of the P.A.F.-induced platelet aggregation increase) was measured, and the resulting aggregation inhibition is calculated from this in %.

[3] = tested on: Histamine-induced anaphylactoid reactions; experiment: Inhibition of anaphylactoid cutaneous reaction induced by histamine; type: in vivo, rat (Sprague-Dawley); conditions: Rattus norvegicus, 1 h; rats, 2 × 10^-5 mol/kg p.o., one hour before challenge; histamine intradermal
Protocol: as §1, §2
To determine the histamine-induced anaphylactoid skin reaction, the animals were injected intradermally in the flank opposite to the antiserum administration with 50 μl of a physiological saline solution containing 0.8 mg/ml of histamine directly before the i.v. injection of the solution containing the ovalbumin and the blue dye.
as §3, §4, §5

histamine (H1) receptor = biological target: T1, histamine (H1) receptor (Cavia porcellus, UniProt P31389); experiment: Antihistamine (H1) effect: inhibition of histamine-induced contractions of isolated guinea-pig ileum in vitro; type: cell-based, guinea-pig (Dunkin Hartley); conditions: histamine 5 × 10^-6 mol/l, test substance 10^-6 mol/l
T1 construct: isolated smooth muscle of the guinea-pig ileum; from tissue; host or cells: isolated ileum segments of Dunkin Hartley guinea-pigs
Protocol: 3. Investigation of the antihistamine (H1) effect based on histamine (H1) receptor antagonism in vitro.
To investigate the histamine (H1) receptor antagonism of the substances, the inhibitory effect thereof on histamine-induced contractions of the smooth musculature of isolated organ was determined in vitro. Isolated strips of organ from the ileum were used. In an organ bath of physiological saline solution, they react to addition of histamine by contracting. Addition of the compounds of the invention decreases this histamine-induced contraction of the smooth musculature of the ileum strips. The extent of decrease of the contraction is an indication of the antihistamine (H1) activity of the compounds. The investigation is carried out analogously to the method originally described by Magnus (Pflugers Arch. 102, 123 (1904)).
Experimental description of the determination of the inhibitory effect on the contraction induced by a 5×10^-6 molar histamine concentration on isolated smooth muscle of the guinea-pig ileum.
For the test, 1.5 cm long segments of the ileum from Dunkin Hartley guinea-pigs having a body weight of 300-500 g were employed. Each strip was placed in an organ bath of 10 ml of Krebs-Henseleit physiological saline solution and attached to a customary apparatus for isotonically measuring changes in length of the ileum strip (automated Celaster measuring apparatus) so that the tissue is under a tension of 1 g. The bath was kept at a pH of 7.4 and aerated with a mixture of 5% CO2 and 95% O2. After an equilibration phase, an isotonic contraction of the tissue was produced by adding histamine in a final concentration of 5×10^-6 mol/l and was washed out again after a contact time of 30 seconds. Only those tissues in which three reproducible contractions were obtained at 10 minute intervals were used in the subsequent test. The test substances were then added in a final concentration of 10^-6 mol/l, and after a contact time of 30 seconds histamine was again added up to a concentration of 5×10^-6 mol/l. The contractions which occurred were measured over the course of 30 seconds. The tissue was then washed several times over a period of 10 minutes. A contraction challenge was then induced again by addition of histamine. The contractions which occurred were again measured over 30 seconds. The difference between the amplitude of the contraction obtained by histamine addition alone and the amplitude of the contraction obtained in the presence of the test substance was determined and calculated as % inhibition.
The inhibitory effects on the contractions induced by histamine 30 seconds after administration of the test substance and on the contractions induced by addition of histamine 10 minutes afterward are given in the table.

T1 sequence (P31389 whole entry): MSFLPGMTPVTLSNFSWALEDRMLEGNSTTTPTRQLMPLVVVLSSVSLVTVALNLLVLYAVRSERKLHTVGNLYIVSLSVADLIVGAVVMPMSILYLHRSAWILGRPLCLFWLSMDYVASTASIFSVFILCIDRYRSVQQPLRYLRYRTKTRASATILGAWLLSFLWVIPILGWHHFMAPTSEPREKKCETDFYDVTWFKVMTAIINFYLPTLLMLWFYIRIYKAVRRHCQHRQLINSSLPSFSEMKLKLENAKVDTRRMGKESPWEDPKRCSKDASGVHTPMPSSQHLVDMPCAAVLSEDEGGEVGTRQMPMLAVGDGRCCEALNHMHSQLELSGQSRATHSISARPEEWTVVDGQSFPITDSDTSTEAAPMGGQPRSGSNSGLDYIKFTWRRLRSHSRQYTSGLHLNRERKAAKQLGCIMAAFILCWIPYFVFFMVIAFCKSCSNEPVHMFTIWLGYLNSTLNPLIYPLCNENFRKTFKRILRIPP

| inhibition at 1 µM (histamine (H1) receptor; after 30 sec., read-out: in vitro (H1) receptor antagonism % inhibitory effect on histamine-induced contractions of the Ileum, after 30 sec.) [%] | inhibition at 1 µM (histamine (H1) receptor; after 10 min. (after washing), read-out: in vitro (H1) receptor antagonism % inhibitory effect on histamine-induced contractions of the Ileum, after 10 min.) [%] | Structure (SMILES) | inhibition in vivo at 20 µmol/kg [1] [%] | inhibition at 10 µM [2] [%] | inhibition in vivo at 20 µmol/kg [3] [%] |
| --- | --- | --- | --- | --- | --- |
|  |  | Cc1ccnc(N2CCN(CCc3c(-c4ccc(Cl)cc4)n4c5c(cccc35)CCC4)CC2)c1 [Example 46] | 35 | 91 | 25 |
| 35 | 48 | COc1cccc(N2CCN(CCc3c(C)n4c5c(cccc35)CCC4)CC2)c1 [Example 48] | 25 |  | 35 |
